Measurements as given in US20050153315A1, “Dimethylarginine dimethylaminohydrolases” (UNIVERSITY COLLEGE LONDON, priority 1999, published 2005).

How the values were obtained:
Type in all cases: biochemical
[1] = biological target: T1, recombinant human DDAHII (Homo sapiens, UniProt O95865); experiment: DDAH assay, [14C]L-NMMA to [14C]citrulline, lysates of E. coli expressing recombinant human DDAHII; details: E. coli lysate, 37° C., 60 min, pH 6.5; for effect of competition on metabolism of [14C] L-NMMA by recombinant DDAHII: molar excess of cold competitor
T1 construct: The entire human DDAHII open reading frame was PCR amplified from oligo dT primed human kidney cDNA; made in house; host or cells: E. coli DH5α, soluble fraction of the lysate, not purified
T1 sequence (O95865 1-285): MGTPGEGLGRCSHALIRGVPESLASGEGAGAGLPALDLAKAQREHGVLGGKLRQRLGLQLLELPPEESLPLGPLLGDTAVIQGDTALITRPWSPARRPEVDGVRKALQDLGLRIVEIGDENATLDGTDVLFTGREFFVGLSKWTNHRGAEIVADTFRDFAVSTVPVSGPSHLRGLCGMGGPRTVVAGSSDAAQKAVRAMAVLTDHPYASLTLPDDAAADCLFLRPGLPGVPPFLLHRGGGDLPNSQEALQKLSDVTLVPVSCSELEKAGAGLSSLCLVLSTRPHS
Excerpt: The entire human DDAHII open reading frame was PCR amplified from oligo dT primed human kidney cDNA using oligos HDDAHII.1 and HDDAHII.2. Oligo HDDAH II.1 is complementary to base pairs 2-15 of the human DDAHII cDNA and contains an EcoRI site in frame with the EcoTI site of pPROX.HTa (Life Technologies). HDDAHI.2 is complementary to base pairs 858-840 of the human DDAHII cDNA and contains an artificial XbaI site. PCR produced a single product of ˜850 bp which was digested with EcoRI and Xbai, ligated into EcoRI and XbaI digested pRPROX.HTa and transformed into compotent E.coli DH5α. A positive clone (pPDDAHII) containing an insert of 858 bp was identified and the insert sequenced on both stands. For expression of recombinant human DDAHII, E.coli were grown in liquid culture at 25 ° C. to an OD600 of 0.5-0.6. Expression was then induced by the addition of IPTG to a final concentration of 1 mM and incubation continued for a further two hours. Following induction, cells were collected by centrifugation, weighed and resuspended in ice cold assay buffer (100 mM Na2HPO4 pH 6.5) at 1 g cells/ml. Cells were disrupted by sonication (6×10 secs, with 10 sec. intervals) and centriguged at 50,000 g to separate soluble material from insoluble cell debris.
Aliquots of E.coli lysates were incubated at 37° C. for 60 min. with […] of 100 mM Na2HPO4 pH 6.5 containing 0.02 μCi [^14C]L-NMMA as described previously (MacAllister et al., 1996, Br. J. Pharmacol. 115, 1001-1004). Following incubation samples were prepared for determination of [^14C] citrulline production by scintillation counting. Reactions were vortexed with 1 ml of 50% (w/v) dowex 50X8-400, centrifuged at 10,000 g for 5 min and then 500 μl of the supernatant was mixed with 5 ml of liquid scintillation fluid and the [^14C] content determined.

[2] = test system: S. coelicolor DDAH (ScDDAH); experiment: DDAH assay, cell lysates containing recombinant S. coelicolor DDAH; details: 10 mM
Experimental: (§1) The effect of 10 mM ADMA and SDMA on recombinant ScDDAH and paDDAH was studied using the assay conditions described in the material and methods section below. Assays were carried out in triplicate on aliquots of cell lysates containing empty vector, scDDAH cDNA or paDDAH cDNA and data was expressed as a mean of the total number of replicates after subtraction of background. The results shown are the mean of three independent experiments.
(§2) Samples were assayed by incubating 100 μl of cells lysates with an equal volume of assay mix (100 mM Na2HPO4 pH 6.5, containing 0.02 μCi [^14C] L-NMMA and 100 μM cold L-NMMA) at 37° C. for 60 min, as previously reported. The samples were then prepared for scintillation counting to measure the production of [^14C] citrulline by adding 400 μl of 50% (w/v) Dowex 50X-400 to the reactions, vortexing and centrifugation at 13000 g for 2 min. The [^14C] content of 100 μl of supernatant in 1 ml scintillation fluid was then determined.
(§3) For expression of the recombinant proteins, a positive clone was picked and grown in liquid media supplemented with 100 μg/ml ampicillin. […]

[3] = biological target: T2, P. aeruginosa DDAH (PaDDAH) (Pseudomonas aeruginosa, UniProt Q9I4E3); experiment: DDAH assay, cell lysates containing recombinant P. aeruginosa DDAH; details: 10 mM
T2 construct: The inserts containing the open reading frames of the bacterial DDAHs were excised from the vector; made in house; host or cells: E. coli DH5α, cell lysate
T2 sequence (Q9I4E3 whole entry): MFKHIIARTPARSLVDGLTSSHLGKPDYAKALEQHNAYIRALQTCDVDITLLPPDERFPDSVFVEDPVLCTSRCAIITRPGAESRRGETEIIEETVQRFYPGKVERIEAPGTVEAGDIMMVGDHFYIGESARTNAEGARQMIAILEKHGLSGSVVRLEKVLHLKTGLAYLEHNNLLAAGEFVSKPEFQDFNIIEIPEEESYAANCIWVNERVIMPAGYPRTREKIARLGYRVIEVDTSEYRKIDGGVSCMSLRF
Experimental: as §1, §2, §3

With `CNC(=N)NCCC[C@H](N)C(=O)O` [L-NMMA, N^G monomethyl-L-arginine] the “effect of competition on metabolism of [14C] L-NMMA by recombinant DDAHII” value (“effect of competition” below) [1] was “inhibited”.
In the case of `CNC(=N)NCC[C@H](N)C(=O)O` [4124W, S-2-amino-4(3-methylguanidino)butanoic acid], the “effect of DDAH inhibitor on metabolism of [14C] L-NMMA by recombinant DDAHII” value [1] is reported as “inhibited”.
In the case of `CN(C)C(N)=NCCC[C@H](N)C(=O)O` [ADMA, N^GN′^G dimethyl-L-arginine], the “effect of competition” value [1] is reported as “inhibited”, the “relative effect on the metabolism of L-NMMA” value ([2]; ADMA compared with SDMA, ScDDAH) is reported as “greater effect than SDMA” and the “competition with L-NMMA as substrate (metabolism of [14C] L-NMMA)” value ([2]; ScDDAH cell lysate, FIG. 7) is reported as “compete with L-NMMA as substrates”. For the same compound, the “relative effect on the metabolism of L-NMMA” value ([3]; ADMA compared with SDMA, PaDDAH) was “greater effect than SDMA” and the “competition with L-NMMA as substrate (metabolism of [14C] L-NMMA)” value ([3]; PaDDAH cell lysate, FIG. 7) was “compete with L-NMMA as substrates”.
In the case of `NC(=O)NCCC[C@H](N)C(=O)O` [citrulline], the “effect of competition” value [1] is reported as “inhibited”.
